{"source": "paper PMC8523698", "about": "“Preclinical characterization of an intravenous coronavirus 3CL protease inhibitor for the potential treatment of COVID19” (Nature Communications, 2021)", "key": {"[1]": {"test_system": "SARS-CoV-2 Belgium/GHB-03021/2020 strain", "assay": "microbe, parasite or virus in culture", "format": "cell-based", "design": "Percent Effect: scale not given: direction of the effect not stated beside the values"}, "[2]": {"test_system": "SARS-CoV-2 Washington strain 1 (USA_WA1/2020)", "format": "cell-based"}, "BCRP": {"molecular_target": "BCRP (Homo sapiens, UniProt Q9UNQ0)", "sequence (Q9UNQ0 whole entry)": "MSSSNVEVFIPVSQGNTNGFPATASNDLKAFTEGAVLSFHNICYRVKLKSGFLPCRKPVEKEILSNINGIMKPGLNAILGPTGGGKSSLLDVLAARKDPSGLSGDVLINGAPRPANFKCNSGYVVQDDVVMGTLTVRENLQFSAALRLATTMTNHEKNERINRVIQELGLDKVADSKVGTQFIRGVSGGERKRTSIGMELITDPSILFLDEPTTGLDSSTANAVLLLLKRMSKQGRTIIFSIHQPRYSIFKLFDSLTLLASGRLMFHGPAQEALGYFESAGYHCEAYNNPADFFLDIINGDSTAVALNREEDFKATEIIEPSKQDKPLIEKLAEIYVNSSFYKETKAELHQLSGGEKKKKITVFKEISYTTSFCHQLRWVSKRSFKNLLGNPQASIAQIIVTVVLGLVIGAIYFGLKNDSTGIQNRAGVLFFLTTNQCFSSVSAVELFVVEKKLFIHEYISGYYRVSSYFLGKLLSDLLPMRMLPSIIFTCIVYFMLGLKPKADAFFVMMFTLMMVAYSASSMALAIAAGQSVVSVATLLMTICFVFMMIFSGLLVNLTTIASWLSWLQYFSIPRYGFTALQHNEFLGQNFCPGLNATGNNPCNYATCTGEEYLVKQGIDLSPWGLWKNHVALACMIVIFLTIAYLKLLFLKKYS", "assay": "Transporter inhibition using membrane vesicles", "details": "IC50, Rosuvastatin (0.2 µM)"}, "[3]": {"assay": "Secondary/off-target pharmacology panel (Eurofins Cerep)", "details": "assessed at 100 µM"}, "OCT1": {"molecular_target": "T1, OCT1 (Homo sapiens, UniProt O15245)", "T1 construct": "expressed in transfected cells; host or cells: HEK293", "T1 sequence (O15245 1-554)": "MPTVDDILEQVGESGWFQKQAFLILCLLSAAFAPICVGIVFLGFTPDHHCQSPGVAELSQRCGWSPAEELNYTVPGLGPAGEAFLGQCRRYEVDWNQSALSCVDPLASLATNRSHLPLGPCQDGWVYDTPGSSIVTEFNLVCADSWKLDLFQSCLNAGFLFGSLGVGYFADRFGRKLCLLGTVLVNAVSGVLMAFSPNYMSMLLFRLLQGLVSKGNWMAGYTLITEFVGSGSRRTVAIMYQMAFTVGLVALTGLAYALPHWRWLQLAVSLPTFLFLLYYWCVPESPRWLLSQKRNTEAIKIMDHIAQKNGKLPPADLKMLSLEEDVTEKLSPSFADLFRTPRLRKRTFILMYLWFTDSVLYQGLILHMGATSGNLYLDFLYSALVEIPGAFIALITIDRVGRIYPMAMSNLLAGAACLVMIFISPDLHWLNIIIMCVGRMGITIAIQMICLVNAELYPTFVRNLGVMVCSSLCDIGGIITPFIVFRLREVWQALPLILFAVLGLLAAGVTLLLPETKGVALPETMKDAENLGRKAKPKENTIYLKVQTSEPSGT", "assay": "Transporter inhibition using transfected HEK293 cells", "format": "in vitro ADME", "details": "IC50, [14C]Metformin (10 µM)"}, "[4]": {"assay": "Metabolic stability and enzyme kinetics in liver S9 (conversion to PF-00835231)", "details": "for microsomal CLint / Km at 20 min: rat"}, "CYP3A4/5": {"test_system": "CYP3A4/5", "assay": "in vitro", "details": "human, microsomes, pH 7.4, Percent of Control Activity, CYP 3A4/5 (mdz)"}, "[5]": {"assay": "Human blood hemocompatibility (hemolysis, flocculation)"}, "MATE2K": {"molecular_target": "T2, MATE2K (Homo sapiens, UniProt Q86VL8)", "T2 construct": "expressed in transfected cells; host or cells: HEK293", "T2 sequence (Q86VL8 1-566 isoform Q86VL8-3)": "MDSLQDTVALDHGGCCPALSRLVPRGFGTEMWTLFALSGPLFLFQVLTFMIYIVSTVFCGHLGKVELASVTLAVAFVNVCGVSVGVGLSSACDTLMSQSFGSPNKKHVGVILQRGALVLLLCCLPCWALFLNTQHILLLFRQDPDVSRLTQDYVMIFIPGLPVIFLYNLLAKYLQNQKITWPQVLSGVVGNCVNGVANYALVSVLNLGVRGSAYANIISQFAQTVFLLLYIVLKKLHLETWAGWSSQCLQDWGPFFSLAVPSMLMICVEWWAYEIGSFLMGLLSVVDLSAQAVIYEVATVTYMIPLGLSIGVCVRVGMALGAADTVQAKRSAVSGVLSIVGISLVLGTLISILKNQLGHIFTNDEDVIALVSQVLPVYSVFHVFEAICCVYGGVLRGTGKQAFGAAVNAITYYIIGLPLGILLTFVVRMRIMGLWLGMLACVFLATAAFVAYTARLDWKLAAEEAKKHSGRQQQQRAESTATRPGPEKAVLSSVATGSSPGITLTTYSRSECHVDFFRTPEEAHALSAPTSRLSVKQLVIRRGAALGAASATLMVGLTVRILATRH", "assay": "Transporter inhibition using transfected HEK293 cells", "format": "in vitro ADME", "details": "IC50, [14C]Metformin (20 µM)", "method": "For the inhibition studies, HEK293 cells were washed three times with warm transport buffer (Hanks’ balanced salt solution with 20 mM 4-(2-Hydroxyethyl) piperazine-1-ethanesulfonic acid, pH 7.4) followed by incubation with test compounds containing probe substrates: 10 or 20 µM [^14C]-metformin (OCT1, OCT2, MATE1, MATE2K), 0.5 µM [^3H] para-aminohippuric acid (OAT1), 0.1 µM [^3H] estrone-3-sulfate (OAT3) or 0.5 µM rosuvastatin (OATP1B1/1B3). Uptake was terminated by washing cells at least three times with ice-cold transport buffer and then lysing with 0.2 mL of scintillation fluid or 0.225 mL of methanol containing internal standard. For radiolabeled compounds, radioactivity in each sample was quantified by measurement on MicroBeta (Perkin Elmer). For rosuvastatin, cell extracts were dried down under nitrogen and reconstituted in 50:50 (v:v) methanol:water prior to injection onto a LC-MS/MS system. The total cellular protein content was determined by using a BCA Protein Assay Kit (Pierce Biotechnology) following the manufacturer’s protocol. Uptake ratio was then derived as a ratio of accumulation in transfected cells to accumulation in wild-type cells. The half-maximal inhibitory concentration (IC50) for each transporter was calculated in GraphPad Prism."}, "OCT2": {"molecular_target": "T3, OCT2 (Homo sapiens, UniProt O15244)", "T3 sequence (O15244 1-555)": "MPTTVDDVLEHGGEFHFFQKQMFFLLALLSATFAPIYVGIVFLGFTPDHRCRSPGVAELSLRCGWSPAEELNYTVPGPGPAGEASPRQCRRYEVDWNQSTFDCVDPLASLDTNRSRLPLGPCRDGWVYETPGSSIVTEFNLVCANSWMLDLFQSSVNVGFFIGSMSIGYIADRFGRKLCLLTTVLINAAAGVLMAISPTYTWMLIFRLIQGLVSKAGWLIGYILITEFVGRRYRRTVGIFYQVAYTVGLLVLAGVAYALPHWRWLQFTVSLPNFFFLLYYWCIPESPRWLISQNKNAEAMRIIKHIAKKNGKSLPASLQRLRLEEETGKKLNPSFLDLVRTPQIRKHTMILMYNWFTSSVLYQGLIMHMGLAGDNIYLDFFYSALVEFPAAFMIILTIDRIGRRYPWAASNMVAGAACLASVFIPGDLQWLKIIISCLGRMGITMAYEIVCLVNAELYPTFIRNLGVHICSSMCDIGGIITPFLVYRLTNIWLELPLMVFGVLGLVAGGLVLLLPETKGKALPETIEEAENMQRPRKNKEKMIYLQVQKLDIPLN", "assay": "Transporter inhibition using transfected HEK293 cells", "details": "IC50, [14C]Metformin (20 µM)"}}, "note": "Where “and” joins values, the source holds several entries; their conditions need not be identical. Equal entries are not always repeated.", "data": [{"smiles": "COc1cccc2[nH]c(C(=O)N[C@@H](CC(C)C)C(=O)N[C@@H](C[C@@H]3CCNC3=O)C(=O)CO)cc12", "note": "[PF-00835231-00]", "values": [{"measurement": "Percent Effect", "setting": "[1]", "result": 0.59, "unit": "%"}, {"measurement": "% Well Effect", "setting": "[2]", "result": 0.795, "unit": "%"}]}, {"smiles": "COc1cccc2[nH]c(C(=O)N[C@@H](CC(C)C)C(=O)N[C@@H](C[C@@H]3CCNC3=O)C(=O)COP(=O)(O)O)cc12", "note": "[PF-07304814]", "values": [{"measurement": "IC50", "setting": "BCRP", "result": "238 µM and > 130 µM"}, {"measurement": "secondary (off-target) pharmacology", "setting": "[3]", "result": "minimal potential for secondary (off-target) pharmacology"}, {"measurement": "IC50", "setting": "OCT1", "result": "> 300", "unit": "µM"}, {"measurement": "Vmax", "setting": "[4]; Rat, best-fit, Two enzyme: MM + Unsaturable", "result": 2188, "unit": "pmol/min/mg"}, {"measurement": "microsomal CLint", "setting": "[4]; liver S9, pH 7.5, CL, unsaturable component, best-fit", "result": 4.56, "unit": "µL/min/mg"}, {"measurement": "microsomal CLint", "setting": "[4]; liver S9, pH 7.5, CLint total, Rat, (vmax / KM) + CL", "result": 45.5, "unit": "µL/min/mg"}, {"measurement": "microsomal CLint", "setting": "[4]; liver S9, pH 7.5, CLint,2, low affinity kinetic component", "result": 4.56, "unit": "µL/min/mg"}, {"measurement": "microsomal CLint", "setting": "[4]; liver S9, pH 7.5, CLint,app", "result": 45.5, "unit": "µL/min/mg"}, {"measurement": "microsomal CLint", "setting": "[4]; liver S9, pH 7.5, CLintu (unbound CLint)", "result": 51, "unit": "µL/min/mg"}, {"measurement": "Km at 20 min", "setting": "[4]; rat liver S9, pH 7.5, KM", "result": 53.4, "unit": "µM"}, {"measurement": "Km at 20 min", "setting": "[4]; rat liver S9, pH 7.5, Km, Rat, best-fit, Two enzyme: MM + Unsaturable", "result": 53.4, "unit": "µM"}, {"measurement": "activity at 0.01 µM", "setting": "CYP3A4/5; 30-Minute Preincubation", "result": 99.4, "unit": "%"}, {"measurement": "activity at 0.01 µM", "setting": "CYP3A4/5; Zero-Minute Preincubation", "result": 102, "unit": "%"}, {"measurement": "activity at 0.158 µM", "setting": "CYP3A4/5; 30-Minute Preincubation", "result": 102, "unit": "%"}, {"measurement": "activity at 0.158 µM", "setting": "CYP3A4/5; Zero-Minute Preincubation", "result": 99.1, "unit": "%"}, {"measurement": "activity at 0.398 µM", "setting": "CYP3A4/5; 30-Minute Preincubation", "result": 101, "unit": "%"}, {"measurement": "activity at 0.398 µM", "setting": "CYP3A4/5; Zero-Minute Preincubation", "result": 99.3, "unit": "%"}, {"measurement": "activity at 1 µM", "setting": "CYP3A4/5; 30-Minute Preincubation", "result": 99.2, "unit": "%"}, {"measurement": "activity at 1 µM", "setting": "CYP3A4/5; Zero-Minute Preincubation", "result": 100, "unit": "%"}, {"measurement": "activity at 15.8 µM", "setting": "CYP3A4/5; 30-Minute Preincubation", "result": 97.5, "unit": "%"}, {"measurement": "activity at 15.8 µM", "setting": "CYP3A4/5; Zero-Minute Preincubation", "result": 102, "unit": "%"}, {"measurement": "activity at 39.8 µM", "setting": "CYP3A4/5; 30-Minute Preincubation", "result": 97, "unit": "%"}, {"measurement": "activity at 39.8 µM", "setting": "CYP3A4/5; Zero-Minute Preincubation", "result": 100, "unit": "%"}, {"measurement": "activity at 100 µM", "setting": "CYP3A4/5; 30-Minute Preincubation", "result": 99.2, "unit": "%"}, {"measurement": "activity at 100 µM", "setting": "CYP3A4/5; Zero-Minute Preincubation", "result": 101, "unit": "%"}, {"measurement": "hemolysis or flocculation/turbidity parameters", "setting": "[5]", "result": "no effect on hemolysis or flocculation/turbidity parameters"}, {"measurement": "IC50", "setting": "MATE2K", "result": "> 300", "unit": "µM"}, {"measurement": "IC50", "setting": "OCT2", "result": "> 300", "unit": "µM"}]}]}
